# Calls of active or inactive are those of the source. No cut-off for these calls is given here. Starred links: 1 amine or outer side, 2 acyl side, 3 side chain; linkers in the order of their positions; H or OH if unused. Positions of bridges follow the written chain, without caps; N, C: chain ends. Non-standard residues stand in square brackets, D forms with d. Residues, ends and D or L forms follow the SMILES beside them. Chains are numbered I, II in the order given. Actinocin(9to1) = Cc1c2oc3c(C)ccc(C(=O)[*:1])c3nc-2c(C(=O)[*:2])c(N)c1=O; NMeV = CN[C@H](C(=O)O)C(C)C; Sar = CNCC(=O)O
# Experiments:
# [1] = organism: Homo sapiens; test: Inhibition of Anti-PLA2R IgG interaction with human recombinant PLA2 receptor at 10 uM by SPR analysis relative to control
# [2] = organism: Homo sapiens; test: Inhibition of Anti-PLA2R IgG interaction with human recombinant PLA2 receptor at 10 uM incubated for 1 hr by ELISA analysis relative to control
# [3] = tested on: Podocyte; test: Reversal of membranous nephropathy-patient derived 5% plasma induced cytotoxicity against human Podocytes assessed as cell viability recovery by measuring optical density at 0.2 uM measured at 48 hrs by CCK-8 assay (reference value: 0.4 +/- 0.1); type: functional
# [4] = tested on: Podocyte; test: Recovery of Podocin-expression in membranous nephropathy-patient derived 5% plasma induced human Podocytes by Western blot analysis; type: functional, cell-based; conditions: dose 0.2-5 µM
# [5] = molecular target: Secretory phospholipase A2 receptor (Homo sapiens, UniProt Q13018); test: Binding affinity to human recombinant PLA2 receptor assessed as dissociation constant by SPR analysis
# Sequence of Secretory phospholipase A2 receptor (Q13018 whole entry): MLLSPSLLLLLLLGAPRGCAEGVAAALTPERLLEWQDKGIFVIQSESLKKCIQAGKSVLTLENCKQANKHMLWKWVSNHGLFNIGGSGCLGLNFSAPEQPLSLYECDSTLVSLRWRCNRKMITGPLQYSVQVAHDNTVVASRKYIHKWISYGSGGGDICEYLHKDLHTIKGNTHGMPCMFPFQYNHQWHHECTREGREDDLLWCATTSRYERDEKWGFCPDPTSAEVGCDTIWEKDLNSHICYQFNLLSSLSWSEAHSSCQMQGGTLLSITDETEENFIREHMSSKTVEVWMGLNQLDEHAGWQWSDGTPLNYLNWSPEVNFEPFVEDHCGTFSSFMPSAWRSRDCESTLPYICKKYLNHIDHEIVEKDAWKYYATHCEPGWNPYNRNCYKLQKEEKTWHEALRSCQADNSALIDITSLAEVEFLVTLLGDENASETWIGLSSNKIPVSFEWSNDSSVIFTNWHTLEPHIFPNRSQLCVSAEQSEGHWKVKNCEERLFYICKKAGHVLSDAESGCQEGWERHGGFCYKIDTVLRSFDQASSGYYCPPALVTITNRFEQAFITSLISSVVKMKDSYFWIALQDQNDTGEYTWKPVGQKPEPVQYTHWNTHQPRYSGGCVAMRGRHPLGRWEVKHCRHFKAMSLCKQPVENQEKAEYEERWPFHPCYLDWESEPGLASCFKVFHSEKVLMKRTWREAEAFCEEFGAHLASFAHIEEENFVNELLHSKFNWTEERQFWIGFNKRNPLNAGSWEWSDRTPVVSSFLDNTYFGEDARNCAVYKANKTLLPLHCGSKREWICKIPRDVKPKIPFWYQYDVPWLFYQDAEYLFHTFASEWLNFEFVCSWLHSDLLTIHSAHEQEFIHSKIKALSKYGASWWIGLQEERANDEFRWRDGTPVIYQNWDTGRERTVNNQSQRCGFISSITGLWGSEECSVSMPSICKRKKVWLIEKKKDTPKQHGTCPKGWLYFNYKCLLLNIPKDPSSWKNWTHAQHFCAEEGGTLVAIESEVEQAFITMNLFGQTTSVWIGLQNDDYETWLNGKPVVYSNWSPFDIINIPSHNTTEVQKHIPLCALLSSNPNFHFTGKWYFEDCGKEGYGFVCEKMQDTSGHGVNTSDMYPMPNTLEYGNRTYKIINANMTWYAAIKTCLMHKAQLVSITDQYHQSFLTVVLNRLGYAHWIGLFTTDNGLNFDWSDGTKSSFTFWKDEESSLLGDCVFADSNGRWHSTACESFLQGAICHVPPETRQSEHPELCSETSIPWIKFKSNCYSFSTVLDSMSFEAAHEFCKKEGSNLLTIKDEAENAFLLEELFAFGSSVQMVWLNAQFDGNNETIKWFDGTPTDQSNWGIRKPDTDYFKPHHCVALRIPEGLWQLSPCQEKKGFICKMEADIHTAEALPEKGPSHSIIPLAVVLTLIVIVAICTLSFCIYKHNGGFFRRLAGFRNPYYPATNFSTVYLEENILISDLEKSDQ
# [6] = organism: Homo sapiens; test: Inhibition of Anti-PLA2R IgG interaction with human recombinant PLA2 receptor assessed as maximum inhibition at 0 to 5 uM by SPR analysis relative to control; conditions: dose 0-5 µM
# [7] = organism: Homo sapiens; test: Binding affinity to human Anti-PLA2R IgG at 1 to 500 uM by SPR analysis; conditions: dose 1-500 µM
# [8] = tested on: Podocyte; test: Reversal of membranous nephropathy-patient derived 5% plasma induced cytotoxicity against human Podocytes assessed as cell viability recovery by measuring optical density at 0.2 uM measured at 72 hrs by CCK-8 assay (reference value: 0.3 +/- 0.05); type: functional
# [9] = tested on: Podocytes; test: Inhibition of Anti-PLA2R IgG binding to human recombinant PLA2 receptor in human Podocytes assessed as mean fluorescence intensity at 5 uM by immunofluorescence analysis (reference value: 8.1 +/- 1.5); type: cell-based
# [10] = tested on: Podocyte; test: Reversal of membranous nephropathy-patient derived 5% plasma induced cytotoxicity against human Podocytes assessed as cell viability recovery by measuring optical density at 5 uM measured at 48 hrs by CCK-8 assay (reference value: 0.4 +/- 0.1); type: functional
# [11] = tested on: Podocyte; test: Reversal of membranous nephropathy-patient derived 5% plasma induced inhibition of cell migration in human Podocytes assessed as restoration of number of migrating cells at 1 uM measured upto 24 hrs by wound healing assay (reference value: 25.3 +/- 5.1); type: functional
# [12] = tested on: Podocyte; test: Reversal of membranous nephropathy-patient derived 5% plasma induced cytotoxicity against human Podocytes assessed as cell viability recovery by measuring optical density at 1 uM measured at 48 hrs by CCK-8 assay (reference value: 0.4 +/- 0.1); type: functional
# [13] = tested on: Podocyte; test: Reversal of membranous nephropathy-patient derived 5% plasma induced cytotoxicity against human Podocytes assessed as cell viability recovery by measuring optical density at 5 uM measured at 72 hrs by CCK-8 assay (reference value: 0.3 +/- 0.05); type: functional
# [14] = tested on: Podocyte; test: Reversal of membranous nephropathy-patient derived 5% plasma induced cytotoxicity against human Podocytes assessed as cell viability recovery by measuring optical density at 1 uM measured at 72 hrs by CCK-8 assay (reference value: 0.3 +/- 0.05); type: functional
# [15] = organism: Homo sapiens; test: Inhibition of Anti-PLA2R IgG interaction with human recombinant PLA2 receptor by SPR analysis; conditions: dose 50-80 nM
SMILES,inhibition [1] [%],inhibition [2] [%],also measured
CC(C)C[C@@H](c1c(O)c(C=O)c(O)c(C=O)c1O)[C@@]1(C)CC[C@H]2C1=C[C@H](C(C)(C)O)CC[C@H]2C,11.3,21.2,–
CC(=O)O[C@H]1C[C@]2(O)C(COC(=O)C(OC(=O)CC(C)C)C(C)C)=CO[C@@H](OC(=O)CC(C)C)[C@@H]2[C@@]12CO2 (some centres undefined),7.7,30.2,–
CC(=O)O[C@H]1C[C@@H]2C(COC(=O)CC(C)C)=CO[C@@H](OC(=O)CC(C)C)[C@@H]2[C@@]12CO2,–,26.4,–
COc1cc(O)c2c(=O)c3cc(CC=C(C)C)c(O)c(O)c3oc2c1CC=C(C)C,10.7,51.8,–
CC(C)C[C@H](c1c(O)c(C=O)c(O)c(C=O)c1O)[C@@]1(C)CC[C@@H]2[C@@H]1[C@H]1[C@@H](CC[C@@]2(C)O)C1(C)C [MACROCARPAL B],19,41.6,OD [3]: 0.6; Activity [4]: Dose-Dependent Effect; Kd [5]: 1470 nM; Imax [6]: 30%; Activity [7]: inactive; OD [8]: 0.5; Flu intensity [9]: 2.1; OD [10]: 0.8; Activity [11]: 50.7; OD [12]: 0.7; OD [13]: 0.6; OD [14]: 0.6; inhibition [15]: Dose-Dependent Effect
"Cc1c2oc3c(C)ccc(C(=O)N[C@@H]4C(=O)N[C@H](C(C)C)C(=O)N5CCC[C@H]5C(=O)N(C)CC(=O)N(C)[C@@H](C(C)C)C(=O)O[C@@H]4C)c3nc-2c(C(=O)N[C@@H]2C(=O)N[C@H](C(C)C)C(=O)N3CCC[C@H]3C(=O)N(C)CC(=O)N(C)[C@@H](C(C)C)C(=O)O[C@@H]2C)c(N)c1=O (I: T[dV]P[Sar][NMeV] / II: T[dV]P[Sar][NMeV]; ester I:1-I:C, II:1-II:C; linker I:N-II:N via Actinocin(9to1))",–,79.3,–
CC(C)C[C@@H](c1c(O)c(C=O)c(O)c(C=O)c1O)[C@@H]1CC[C@@](C)(O)[C@@H]2[C@@H]3[C@H](CC[C@]21C)C3(C)C,12.6,34.3,–
CC1(C)CC[C@]2(C(=O)O)CC[C@]3(COC(=O)/C=C/c4ccc(O)c(O)c4)C(=CC[C@@H]4[C@@]5(C)CC[C@H](O)C(C)(C)[C@@H]5CC[C@]43C)[C@@H]2C1,–,20.5,–
CC(C)=CCc1cc2c(=O)c3c(O)c(CC=C(C)C)c(O)c(CC=C(C)C)c3oc2c(O)c1O,–,55.4,–
CCCCCc1cc(O)c(C/C=C(\C)CCC=C(C)C)c(O)c1,9.7,32.9,–
CC(C)=CCc1c(O)c(CC=C(C)C)c2oc3c(O)ccc(O)c3c(=O)c2c1O,12.2,49.4,–
CO[C@H]1C[C@H](O[C@H]2[C@H](C)O[C@@H](O[C@@H]3/C(C)=C/C[C@@H]4C[C@@H](C[C@]5(C=C[C@H](C)[C@@H](C6CCCCC6)O5)O4)OC(=O)[C@@H]4C=C(C)[C@@H](O)[C@H]5OC/C(=C\C=C\[C@@H]3C)[C@]54O)C[C@@H]2OC)O[C@@H](C)[C@@H]1O,12,27.1,–
CC(C)=CCC[C@]1(C)C=Cc2c(O)c3c(c(CC=C(C)C)c2O1)O[C@]12C(=C[C@@H]4C[C@H]1C(C)(C)O[C@@]2(C/C=C(/C)C(=O)O)C4=O)C3=O,13.4,73.1,–
COc1c(O)c2c(=O)cc(OC)c3c4c(OC)cc(O)c5c(=O)c(OC)c6c(c(c1[C@H](C(C)=O)[C@](C)(O)C6)c23)c54,11.9,74.3,–
CC(=O)C[C@]1(O)C(=O)C2=C(OC[C@@H]2C)c2ccc3c(C)cccc3c21,10.1,28.7,–
